The values that follow are results of earlier work, collected in patent publication US20130156896A1, “CELLULOSE-BASED FOOD CASING HAVING A FUNGICIDAL FINISH AND A METHOD FOR PROTECTING CELLULOSE-BASED FOOD CASINGS FROM MOLD INFESTATION” (CASETECH GMBH, priority 2011, published 2013).

One data set concerns microorganisms. The note with it: known from the literature.
For data set [1] the following is noted: animal testing.
The subject of the next data set is Staphylococcus aureus. The following applies: for example against Staphylococcus aureus.

Structures are written as SMILES.

Turning to `COc1ccc(O)c(C(C)(C)C)c1` [BHA, butylated hydroxyanisole], the activity against microorganisms result in the data set on microorganisms is “relatively weak activity”.

As to `CC(C)c1cc2c(c(O)c1O)[C@@]1(C(=O)O)CCCC(C)(C)[C@@H]1CC2` [carnosic acid], the “chemoprotective effect against carcinogens” value in data set [1] is on record as “chemoprotective effect”. The antimicrobial activity entry in the data set with Staphylococcus aureus is listed as “antimicrobial activity”.
